The subject of experiment [1] is anti-IgM-induced lymphocyte proliferation. Nature of the experiment: Lymphocyte proliferation assay (3H-Thymidine), anti-IgM-stimulated splenocytes. It counts as cell-based, mouse. The following applies: for IC50: mouse splenocytes, 3H-Thymidine incorporation, read-out: IC50, lymphocyte proliferation, B-cells (anti-IgM). The method, then: (§1) (A) Isolated mouse primary splenocytes were cultured with anti-CD3/anti-CD28 (0.3 μg/mL each) or anti-IgM (3 μg/mL) for 48 h, then 1 μCi 3H-Thymidine was added for 12 h and incorporation into DNA was measured, expressing data as fold increase above unstimulated cells (mean±SD; n=3). (B-D) Primary splenocytes were pretreated for 2 h with IKK inhibitor, BMS-335541 (B), PKC inhibitor, Bisindolylmaleimide I (C) or CID-2858522 (D), then stimulated with anti-CD3/anti-CD28 (0.3 μg/mL) or anti-IgM (3 μg/mL) for 48 h. 1 μCi 3H-Thymidine was added for 12 h and incorporation into DNA was measured, expressing data as percent inhibition relative to control cells treated with DMSO (mean±SD; n=3). […] Levels of TRAF1 and β-actin were assessed by immunoblotting, quantified by densitometry and TRAF1 results reported relative to control cells, after normalization for β-actin (mean±SD). […] Then nuclear extracts were prepared and p65-DNA-binding activity was measured (mean±SD; n=3).
(§2) Lymphocyte proliferation assay. Splenocytes were isolated from normal Balb/c mice and red blood cells were removed using a mouse erythrocyte lysis kit (R&D Systems, Minneapolis, Minn.). Splenocytes were suspended in RMPI-1640 medium supplemented with 10% FBS, 1% penicillin-streptomycin, and 1 mM L-glutamine. Cells were diluted into 2×10^6 cells/mL and 200 μL were seeded in round bottom 96-well plates and incubated at 37° C. in 5% CO2 and 95% relative humidity. Cells were pretreated with compounds or DMSO diluted in medium for 2 h, then treated with anti-CD3/anti-CD28 or anti-IgM antibodies for 48 h, prior to adding 1 μCi [^3H]-Thymidine for (MP Biomedical, Solon, Ohio) 12 h. Cells were transferred to fiberglass filters (Wallac, Turku, Finland) using a FilterMate Harvester (Perkin Elmer), dried, and [^3H]-incorporation into DNA was quantified by scintillation counting Betaplate Scint (Perkin Elmer) and a MicroBetaTrilux LCS and luminescence counter (Perkin Elmer).
A general note: Dividing cells build labelled thymidine or BrdU into new DNA.

Experiment [2] relates to anti-CD3/CD28-induced lymphocyte proliferation. Nature of the experiment: Lymphocyte proliferation assay (3H-Thymidine), anti-CD3/CD28-stimulated splenocytes. The following applies: mouse splenocytes; for IC50: 3H-Thymidine incorporation, read-out: IC50, lymphocyte proliferation, T-cells (anti-CD3/CD28). It counts as cell-based. The protocol:
as §1, §2

Experiment [3] relates to TRAF1 induction. Description: TRAF1 expression in anti-IgM-stimulated CLL B-cells (immunoblot). The format is cell-based, human. To be noted: 24 hr after stimulation. The method, then:
as §1
Chronic Lymphocytic Leukemia (CLL) cell culture. Peripheral blood mononuclear cells from CLL patients were obtained under IRB approval from whole blood by Ficoll density gradient centrifugation and cultured with RPMI 1640 Medium supplemented with 10% FBS and antibiotics.
(In western blotting, separated proteins are transferred to a membrane and probed.)

In experiment [4] the test system is retinoic acid-induced NF-κB activity. Description: NF-κB reporter in HEK293-NF-κB-luc cells treated with all-trans-retinoic acid. It counts as cell-based. The following applies: 16 μM retinoic acid; CID-2858522 4 μM, IKK inhibitor 10 μM. The method, then:
(§3) FIGS. 3 (A-F) HEK293-NF-κB-luc cells were pretreated with CID-2858522 (4 μM), IKK inhibitor, BMS-335541 (10 μM), or PKC inhibitor, Bisindolylmaleimide I (1 μM) for 2 hrs and then transfected with plasmids encoding CD4/TLR4 (A), CD40 (B), NOD1 (C), NOD2 (D), cIAP2-MALT1 (E), or XIAP and TAB (F), or pcDNA as control (compounds were not removed). After 48 hrs, luciferase activity was measured expressing data as fold increase relative to unstimulated cells (mean±SD; n=3). (G-H) HEK293-NF-κB-luc cells were pretreated with CID-2858522 (4 μM), or IKK inhibitor, BMS-335541 (10 μM) for 2 hrs and then cultured with 2 μM doxorubicin (G) or 16 μM retinoic acid (H). After 48 hrs, luciferase activity was measured as above.
(§4) Counter Screening and Secondary Assays. To counter-screen for inhibitors of the TNF pathway, HEK293-NFκB-Luc cells were seeded at 10^5 cells per well in 90 μL medium in white 96-well plates (Greiner Bio-One) and cultured overnight, before adding compounds (5 μL in medium) to cells. […] Luciferase activity was measured using Britelite kit (Perkin Elmer). […] Cells were cultured in medium containing CID-2858522 or other compounds and luciferase activity was measured 48 h later. […] Reactions were then initiated by addition of 50 μL 160 nM ATP (Sigma) in PBS and luciferase activity was measured 2 h later using a luminometer (LJL Biosystems, Sunnyvale, Calif.).

In experiment [5] the test system is CD4-TLR4 induced NF-κB reporter gene activity. Nature of the experiment: NF-κB reporter in HEK293-NF-κB-luc cells transfected with CD4-TLR4. It counts as cell-based. The following applies: CID-2858522 4 μM, IKK inhibitor 10 μM, PKC inhibitor 1 μM. The method, then:
as §3, §4

Each structure is given as a SMILES string. “Also recorded” adds a separate entry of the source. Read-outs that look alike come from different tables or passages of the source.

With `CN(C)CCCn1cc(C2=C(c3c[nH]c4ccccc34)C(=O)NC2=O)c2ccccc21` [Bisindolylmaleimide I, reference compound], the IC50 in experiment [1] was 200 nM; in experiment [2] it was 11500 nM. The “inhibition of anti-IgM-stimulated TRAF1 expression” value in experiment [3] was “also inhibited”.
As for `Cc1cc2nc(NCCCO)n(CC(=O)c3cc(C(C)(C)C)c(O)c(C(C)(C)C)c3)c2cc1C` [Compound 1, 2-(2-(3-Hydroxypropylamino)-5,6-dimethyl-1H-benzo[d]imidazol-1-yl)-1-(3,5-di-tert-butyl-4-hydroxyphenyl)ethanone], the “suppression of retinoic acid-induced NF-κB activity” value in experiment [4] was “did not inhibit”. The IC50 in experiment [1] (Lymphocyte) was 2000 nM. Besides, in experiment [2], the “effect on anti-CD3/CD28-induced lymphocyte proliferation” value was “minimal effect”. Moreover, in experiment [3], the “inhibition of anti-IgM-stimulated TRAF1 expression” value is “inhibited”. In experiment [5], the “suppression of TLR4 (CD4-TLR4) induced NF-κB reporter” value is “did not inhibit; also recorded: not by CID-2858522”.
`Cc1ccc2nc(NCCN)c3ncc(C)n3c2c1` [BMS-345541, reference compound]: the “suppression of retinoic acid-induced NF-κB activity” value in experiment [4] is “significantly suppressed”. Moreover, the values for the IC50 in experiment [1] (Lymphocyte) and in experiment [2] (Lymphocyte) were approximately 2000 nM and approximately 4000 nM, respectively. For the same compound, the “suppression of lymphocyte proliferation” value in experiment [1] (concentrations of 5 μM, stimulus not specified) is recorded as “essentially completely suppressed”. For the same compound, in experiment [5], the “suppression of TLR4 (CD4-TLR4) induced NF-κB reporter” value was “suppressed”.
